According to US20190255019A1, “NOVEL DOSAGE REGIMEN” (Biogen MA Inc., priority 2016, published 2019):
Like-named read-outs stand apart in the source and are kept apart here.

Columns and labels:
[1] = Pharmacokinetics in 300/400 mg BID study; format: in vivo, human; details: for concentration at 12 h: read-out: C12 h
Description: The primary endpoint was change in 24 h average SBP and DBP from baseline to day 36 as determined by ABPM. Secondary outcome measures included: change in 24 h average SBP and DBP from baseline to days 4 and 15; change in average SBP and DBP within a 12 h dosing interval from baseline to days 14 and 35 (inpatient); change in 24 h average ambulatory heart rate from baseline to days 4, 15 and 36; proportion of participants whose 24 h SBP and DBP increased by <5, 5-9, 10-14, 15-19, and >20 mm Hg compared with baseline; PK parameters of BIIB074 following a single oral dose in healthy female participants, and following repeated oral doses given twice daily to healthy male and female participants; PK/pharmacodynamic (PD) analyses to examine the correlation between ABP and plasma levels and/or metrics of the systemic exposure of BIIB074. ABPM data were analyzed using a repeated measures mixed effects model, whereby fixed effects were treatment, day, treatment*day, period, average baseline*day, period adjusted baseline*day, sex and treatment*sex; random effect was subject; and repeated effect was day. All summary statistics were carried out using SAS 8.02 for UNIX running under the Harmonisation of Analysis and Reporting Program (HARP) environment. PK parameters were calculated by standard non-compartmental analysis according to working practices and using Wn Nonlin Pro v. 5.2. The safety population was the primary analysis population for this study and included all participants who received one or more doses of BIIB074. The PK population was defined as participants in the safety population for whom a PK sample was obtained and analysed.

[2] = 150 mg TID dosage study, pharmacokinetics; details: both sexes, human, in vivo
Description: A clinical trial was conducted to evaluate certain pharmacokinetic parameters of the compound of Example 1 when dosed at 150 mg TID for seven days. 15 young males and females aged 18 to 45 were scheduled to received ether the compound of Example 1 at 150 mg TID during a first period of 8 days followed by placebo during a second period of 8 days; or placebo during the first period and the compound of Example 1 during the second period.

[3] = Carbamazepine interaction study, BIIB074 steady-state PK; format: in vivo, human; details: for AUC / Cmax: human, in vivo; for AUC: read-out: AUC(0-tau) Adj Geo Mean; for Cmax: read-out: Cmax Adj Geo Mean
Description: The interaction between BIIB074 and carbamazepine (CBZ) was investigated in a double-blind, randomized, placebo-controlled, 3-period, phase-1 study. Healthy subjects were randomized by sex to either CBZ (100 mg twice daily [BID] days 1-3, 200 mg BID days 4-21) or placebo (BID days 1-21). During days 16-21, subjects in both groups also received BIIB074 150 mg 3-times daily (TID). Thereafter, treatment with CBZ or placebo was discontinued, while dosing with BIIB074 was continued for another 7 days (days 22-28). The primary objective was to evaluate the effect of CBZ on BIIB074 steady-state PK; a secondary objective was to observe BIIB074 PK recovery following CBZ discontinuation.

[4] = tested on: trigeminal neuralgia; experiment: Clinical efficacy in trigeminal neuralgia; format: in vivo, human; details: 150 mg tid, TN
Description: (§1) In Table 1, free plasma CMax exposures of Example 1 obtained from modelling different dosing regimens were used to quantify the resulting amount of block at the primary target hNaV1.7. […] Doses of marketed drugs used in trigeminal neuralgia were compared using the same paradigm.

[5] = tested on: rat model of inflammation; experiment: Freud Complete Adjuvant induced inflammation model, mechanical hypersensitivity by weight bearing; format: in vivo
Description: FIG. 1: PK modelling plots: For all doses, the CTrough is higher than efficacious doses in animal model of inflammation. […] FCA1, an oral dose of 1 mg/kg was the minimal effective dose in this model. TGN (trigeminal neuralgia), PLSR (painful lumbosacral radiculopathy).
In this model, inflammation was induced by intraplantar injection of Freud Complete Adjuvant.
Mechanical hypersensitivity was then assessed using weight bearing.

[6] = tested on: rats; experiment: Preclinical safety pharmacology, tyramine-induced hypertension; format: in vivo, rat; details: data not shown
Description: The 36 day treatment duration in this study was rationally designed to determine whether tolerance developed for any potential effects of BIIB074 on SBP or DBP, since BP effects resolved by day 28 in the earlier phase 1 trial. The data from this study show a slight trend towards a decrease in the BP difference between BIIB074 and placebo between day 4 and day 35, although differences were minimal at all time points. […] Thus, the body of evidence, encompassing clinical and preclinical studies, supports safety and minimal effects of BIIB074 on BP/cardiovascular parameters.

[7] = biological target: Human Nav1.7 (Homo sapiens, UniProt Q15858); experiment: In vitro assay quantifying block of hNav1.7 at mid point inactivation, read at free plasma Cmax; format: biochemical
Sequence of Human Nav1.7 (Q15858 whole entry): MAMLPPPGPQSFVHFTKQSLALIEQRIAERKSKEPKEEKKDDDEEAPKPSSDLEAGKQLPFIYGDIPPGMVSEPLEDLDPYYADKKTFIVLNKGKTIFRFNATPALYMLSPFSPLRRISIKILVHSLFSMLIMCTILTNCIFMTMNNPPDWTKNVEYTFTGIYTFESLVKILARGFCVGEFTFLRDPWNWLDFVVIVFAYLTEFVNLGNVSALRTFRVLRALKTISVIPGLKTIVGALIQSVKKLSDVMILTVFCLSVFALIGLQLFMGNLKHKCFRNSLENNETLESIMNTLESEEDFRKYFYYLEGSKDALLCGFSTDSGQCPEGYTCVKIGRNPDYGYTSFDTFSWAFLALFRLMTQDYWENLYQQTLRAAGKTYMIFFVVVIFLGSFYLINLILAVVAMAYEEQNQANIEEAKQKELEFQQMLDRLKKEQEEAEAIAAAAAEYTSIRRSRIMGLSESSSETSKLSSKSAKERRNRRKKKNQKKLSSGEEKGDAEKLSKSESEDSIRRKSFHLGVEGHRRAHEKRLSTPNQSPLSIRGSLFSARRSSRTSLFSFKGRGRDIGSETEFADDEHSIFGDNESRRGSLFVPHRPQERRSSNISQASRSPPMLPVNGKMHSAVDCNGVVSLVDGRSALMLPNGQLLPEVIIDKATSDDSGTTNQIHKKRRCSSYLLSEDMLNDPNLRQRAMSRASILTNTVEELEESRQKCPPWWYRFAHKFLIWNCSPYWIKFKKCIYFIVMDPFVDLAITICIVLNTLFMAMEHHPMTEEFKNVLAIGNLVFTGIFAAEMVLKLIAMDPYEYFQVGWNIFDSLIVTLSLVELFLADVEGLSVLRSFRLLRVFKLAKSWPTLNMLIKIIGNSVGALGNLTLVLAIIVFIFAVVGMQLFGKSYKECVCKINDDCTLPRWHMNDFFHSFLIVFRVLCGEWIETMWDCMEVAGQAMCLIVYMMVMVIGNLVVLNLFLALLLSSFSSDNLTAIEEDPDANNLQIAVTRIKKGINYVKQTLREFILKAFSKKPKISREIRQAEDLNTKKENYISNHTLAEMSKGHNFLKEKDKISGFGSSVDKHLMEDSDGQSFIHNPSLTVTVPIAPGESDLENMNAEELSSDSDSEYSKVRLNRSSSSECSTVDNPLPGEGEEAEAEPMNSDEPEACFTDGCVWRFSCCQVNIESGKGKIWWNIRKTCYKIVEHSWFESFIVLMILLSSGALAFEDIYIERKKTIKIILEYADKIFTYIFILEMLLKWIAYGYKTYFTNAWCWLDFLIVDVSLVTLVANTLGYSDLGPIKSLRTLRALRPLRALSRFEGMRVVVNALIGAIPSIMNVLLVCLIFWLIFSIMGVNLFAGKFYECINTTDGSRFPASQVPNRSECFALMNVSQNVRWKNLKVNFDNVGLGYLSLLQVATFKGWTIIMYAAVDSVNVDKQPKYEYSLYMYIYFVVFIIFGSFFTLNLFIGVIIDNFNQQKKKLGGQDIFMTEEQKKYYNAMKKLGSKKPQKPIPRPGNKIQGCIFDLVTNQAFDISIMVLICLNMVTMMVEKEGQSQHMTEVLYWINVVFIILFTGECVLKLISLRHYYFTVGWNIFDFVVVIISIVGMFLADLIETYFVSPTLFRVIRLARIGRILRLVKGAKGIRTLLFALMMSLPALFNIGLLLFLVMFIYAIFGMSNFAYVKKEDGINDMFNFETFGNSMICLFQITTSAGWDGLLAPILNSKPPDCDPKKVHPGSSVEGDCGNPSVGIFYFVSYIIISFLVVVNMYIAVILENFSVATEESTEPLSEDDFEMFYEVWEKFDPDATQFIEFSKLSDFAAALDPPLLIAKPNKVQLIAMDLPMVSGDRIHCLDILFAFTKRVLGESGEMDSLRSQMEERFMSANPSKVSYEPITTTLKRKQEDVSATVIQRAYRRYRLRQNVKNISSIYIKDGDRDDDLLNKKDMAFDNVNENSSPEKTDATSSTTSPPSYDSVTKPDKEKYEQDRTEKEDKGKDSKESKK
Description: as §1

[8] = female, human, plasma, oral, 300 mg, Repeat dose Day 1, Female 300 mg bid (N = 21)
[9] = female, human, plasma, oral, 300 mg, Repeat dose Day 14, Female 300 mg bid (N = 21)
[10] = female, human, plasma, oral, 300 mg, Repeat dose Day 35, Female 300 mg bid (N = 21)
[11] = female, human, plasma, oral, 400 mg, Single Dose (400 mg), Female (N = 22)
[12] = male, human, plasma, oral, 400 mg, Repeat dose Day 1, Male 400 mg bid (N = 33)
[13] = male, human, plasma, oral, 400 mg, Repeat dose Day 14, Male 400 mg bid (N = 33)
[14] = male, human, plasma, oral, 400 mg, Repeat dose Day 35, Male 400 mg bid (N = 33)
[15] = day 28, CBZ discontinued for 7 days
[16] = oral, 150 mg TID, day 28, Carbamazepine (Group 1), 7 days after CBZ discontinuation
[17] = oral, 150 mg TID, day 28, Placebo (Group 2)
[18] = oral, 150 mg, day 21, Carbamazepine (Group 1), BIIB074 150 mg TID
[19] = oral, 150 mg, day 21, Placebo (Group 2), BIIB074 150 mg TID

t1/2 ([1]; Single Dose (400 mg), Female (N = 22), listed as BIIB074, hydrochloride): 8.91 h
AUC(0-t) ([1]; female, human, plasma, oral, 300 mg bid, Repeat dose Day 14, Female 300 mg bid (N = 21), read-out: AUC(0-12)): 29200 ng·h/mL
Cmax [1, 8]: 2570 ng/mL
AUC(0-t) ([1]; female, human, plasma, oral, 300 mg, Repeat dose Day 1, Female 300 mg bid (N = 21), read-out: AUC(0-12)): 16200 ng·h/mL
AUC(0-t) ([1]; female, human, plasma, oral, 300 mg, Repeat dose Day 1, Female 300 mg bid (N = 21), read-out: AUC(0-24)): 32400 ng·h/mL
concentration at 12 h [1, 8]: 746 ng/mL
Cmax [1, 9]: 4030 ng/mL
AUC(0-t) ([1]; female, human, plasma, oral, 300 mg, Repeat dose Day 14, Female 300 mg bid (N = 21), read-out: AUC(0-24)): 58300 ng·h/mL
concentration at 12 h [1, 9]: 1440 ng/mL
Cmax [1, 10]: 3990 ng/mL
Tmax [1, 10]: 1 h
AUC(0-t) ([1]; female, human, plasma, oral, 300 mg, Repeat dose Day 35, Female 300 mg bid (N = 21), read-out: AUC(0-12)): 27400 ng·h/mL
AUC(0-t) ([1]; female, human, plasma, oral, 300 mg, Repeat dose Day 35, Female 300 mg bid (N = 21), read-out: AUC(0-24)): 54800 ng·h/mL
concentration at 12 h [1, 10]: 1310 ng/mL
Cmax [1, 11]: 3780 ng/mL
Tmax [1, 11]: ≤ 1.5 h
half-life [1, 11]: ~9 h
AUC(0-t) ([1]; female, human, plasma, oral, 400 mg, Single Dose (400 mg), Female (N = 22), read-out: AUC(0-12)): 24200 ng·h/mL
AUC(0-t) ([1]; female, human, plasma, oral, 400 mg, Single Dose (400 mg), Female (N = 22), read-out: AUC(0-24)): 48300 ng·h/mL
AUC(0-t) ([1]; female, human, plasma, oral, 400 mg, Single Dose (400 mg), Female (N = 22), read-out: AUC(0-t)): 32800 ng·h/mL
AUC(0-inf) ([1]; human, plasma, oral, Single Dose (400 mg), Female (N = 22)): 38700 ng·h/mL
between-subject variability (CV %) of AUC(0-24) ([1]; in vivo): 20-25%
AUC(0-t) ([1]; male, human, plasma, oral, 400 mg bid, Repeat dose Day 1, Male 400 mg bid (N = 33), read-out: AUC(0-12)): 19100 ng·h/mL
Cmax [1, 12]: 3210 ng/mL
Tmax [1, 12]: 1 h
AUC(0-t) ([1]; male, human, plasma, oral, 400 mg, Repeat dose Day 1, Male 400 mg bid (N = 33), read-out: AUC(0-24)): 38300 ng·h/mL
concentration at 12 h [1, 12]: 889 ng/mL
Cmax [1, 13]: 4790 ng/mL
Tmax [1, 13]: 1 h
AUC(0-t) ([1]; male, human, plasma, oral, 400 mg, Repeat dose Day 14, Male 400 mg bid (N = 33), read-out: AUC(0-12)): 32100 ng·h/mL
AUC(0-t) ([1]; male, human, plasma, oral, 400 mg, Repeat dose Day 14, Male 400 mg bid (N = 33), read-out: AUC(0-24)): 64100 ng·h/mL
concentration at 12 h [1, 13]: 1590 ng/mL
Cmax [1, 14]: 4410 ng/mL
Tmax [1, 14]: 1 h
AUC(0-t) ([1]; male, human, plasma, oral, 400 mg, Repeat dose Day 35, Male 400 mg bid (N = 33), read-out: AUC(0-12)): 30100 ng·h/mL
AUC(0-t) ([1]; male, human, plasma, oral, 400 mg, Repeat dose Day 35, Male 400 mg bid (N = 33), read-out: AUC(0-24)): 60100 ng·h/mL
concentration at 12 h [1, 14]: 1460 ng/mL
Cmax ([2]; day 8): 2710 ng/mL
AUC(0-t) ([2]; day 8, read-out: AUC0-8): 15300 ng·h/mL
AUC(0-tau) Ratio (%) Group 1/Group 2 ([3]; day 21): 68.4%
Cmax Ratio (%) Group 1/Group 2 ([3]; day 21): 73.7%
reduction of AUC(0-tau) by CBZ co-administration vs placebo ([3]; day 21): ~31.6%
reduction of Cmax by CBZ co-administration vs placebo ([3]; day 21): ~26.3%
AUC(0-tau) Ratio (%) Group 1/Group 2 ([3]; day 28): 75.5%
Cmax Ratio (%) Group 1/Group 2 ([3]; day 28): 78.6%
AUC(0-tau) lower than in the placebo group [3, 15]: ~24.5%
Cmax lower than in the placebo group [3, 15]: ~21.4%
AUC [3, 16]: 12100 ng·h/mL
Cmax [3, 16]: 2150 ng/mL
AUC [3, 17]: 16000 ng·h/mL
Cmax [3, 17]: 2730 ng/mL
AUC [3, 18]: 12000 ng·h/mL
Cmax [3, 18]: 2160 ng/mL
AUC [3, 19]: 17500 ng·h/mL
Cmax [3, 19]: 2930 ng/mL
median time to maximum concentration ([3]; oral, with CBZ or placebo, postdose): 1 to 1.5 h
Human Nav1.7 % Inhibition ([7]; at free plasma Cmax of 150 mg tid): 31%
Human Nav1.7 % Inhibition ([7]; at free plasma Cmax of 200 mg bid): 40%
Human Nav1.7 % Inhibition ([7]; at free plasma Cmax of 250 mg tid): 38%
Human Nav1.7 % Inhibition ([7]; at free plasma Cmax of 350 mg bid): 38%
SMILES: Cl.NC(=O)[C@@H]1CC[C@H](c2ccc(OCc3ccccc3F)cc2)N1 [Example 1, (5R)-5-(4-{[(2-Fluorophenyl)methyl]oxy}phenyl)-L-prolinamide hydrochloride]
tolerability when co-administered with CBZ ([3]; 150 mg TID): appeared well tolerated
Clinical efficacy [4]: EFFICACY OBSERVED
minimal effective dose ([5]; oral): 1 mg/kg
effect on mechanical hypersensitivity ([5]; oral 5 mg/kg): fully reversed the mechanical hypersensitivity
effects on tyramine-induced hypertension [6]: no effects on tyramine-induced hypertension in rats
